Laboratory results reported in patent US8969556B2, “Purine-based triazoles” (Case Western Reserve University, priority 2010, dated 2015).
Entries after “also recorded” stand apart in the source; their conditions may differ.

Tested on: hippocampal slice cultures
Assay: Aβ oligomer-induced neuronal cell death by PI staining (PI uptake) in hippocampal slice cultures
Details: compound 1 μM, 1 h pretreatment, then Aβ oligomers 5 μM, 48 h; mouse hippocampal slices
Description: In this Example, we used a convenient assay for neuronal cell death, which was induced by incubation with Aβ oligomers in hippocampal slice cultures. The binding of propidium iodide (PI) with DNA of dead cells gives characteristic fluorescence that could be followed by fluorescence microscopy. Since PI is impermeable to live cell membranes, the observed fluorescence is indicative of the extent of dead cell populations.
1.0 mg of Δβ1-42 peptide was dissolved in 120 μL of hexafluoroisopropanol for 60 min at room temperature, and placed back on ice for 5-10 min. Hexafluoroisopropanol was evaporated overnight in the hood at room temperature. The sample was dissolved by 100% DMSO by adding 20 μL of fresh anhydrous DMSO (Sigma Hybri-Max) to 0.45 mg of the peptide, and diluted to 5 mM peptide stock into medium. Diluted peptide was incubated at 4° C. for 24 h, and then centrifuged at 14,000 g for 10 min in the cold. Before treating slice culture with Δβ oligomers, the oligomers were incubated at room temperature for 20 h.
Hippocampal slice cultures were prepared from 7-10 day-old mouse pups. Slices were cut at 400 μm on a Mcllwain tissue chopper, transferred to Millicell (Millipore Corp., Bedford, Mass.) membrane inserts (0.4 μm), and placed in 6-well culture plated. The upper surfaces of the slices were exposed to a humidified 37° C. atmosphere containing 5% CO2. Slice culture media consisted of basal Eagles medium with Earle's balanced salt solution, 20% heat-inactivated horse serum, enriched with glucose to a concentration of 5.6 mM. The medium was changed every other day. Slices were examined periodically for viability, and any dark or abnormal slices were discarded.
The effects of Δβ oligomers were tested in the slices which had been maintained for 15-20 days in vitro. All reagents were added to serum free medium (no horse serum). Δβ oligomers were added to cultures in serum free medium. Vehicles were treated the same way except with no peptide.
To analyze the degree of hippocampal neuronal cell death, hippocampal slices were stained by adding PI into slice culture medium at a concentration of 5 μg/mL. At indicated times after Δβ oligomers treatment, the degree of hippocampal neuronal death was evaluated by microscopic observation of PI uptake as described previously. […] The intensity of the fluorescence was quantitatively analyzed using Scion Image. The images were expressed as an arbitrary unit of PI uptake.
Mouse hippocampal slice cultures were treated with Aβ oligomers in the presence of PI as the staining agent. The degree of hippocampal neuronal death was monitored by fluorescence microscopic observation of the PI uptake. The intensities of the fluorescence were conveniently analyzed using Scion images. The intensity of the PI fluorescence reflects the relative number of the dead cells, since PI cannot permeate the live cell membranes.

| SMILES | neuroprotective effect against Aβ-induced neurotoxicity (neuronal cell survival, PI uptake) |
| --- | --- |
| Clc1nc(NCc2ccccc2)c2ncn(Cc3cn(Cc4ccccc4)nn3)c2n1 [Compound 6, 2-Chloro-6-benzylamino-9-(1-benzyl-1H-1,2,3-triazol-4-yl-methyl)purine] | only marginal effects |
| Fc1ccccc1Cn1cc(Cn2cnc3c(NCc4ccccc4)nc(Cl)nc32)nn1 [Compound 7, 2-Chloro-6-benzylamino-9-[1-(2-fluorobenzyl)-1H-1,2,3-triazol-4-yl-methyl]purine] | neuronal cell survival rates comparable to those of the control experiments; also recorded: effectively suppressed Aβ-induced neurotoxicity |
| Fc1cccc(F)c1Cn1cc(Cn2cnc3c(NCc4ccccc4)nc(Cl)nc32)nn1 [Compound 8, 2-Chloro-6-benzylamino-9-[1-(2,6-difluorobenzyl)-1H-1,2,3-triazol-4-yl-methyl]purine] | only marginal effects |
| Fc1c(F)c(F)c(Cn2cc(Cn3cnc4c(NCc5ccccc5)nc(Cl)nc43)nn2)c(F)c1F [Compound 9, 2-Chloro-6-benzylamino-9-[1-(pentafluorobenzyl)-1H-1,2,3-triazol-4-yl-methyl]purine] | virtually no neuroprotective effect |
| CN1CC[C@H](c2c(O)cc(O)c3c(=O)cc(-c4ccccc4Cl)oc23)[C@H](O)C1 [Flavopiridol, reference compound] | neuronal cell survival rates comparable to those of the control experiments |
| CC[C@H](CO)Nc1nc(NCc2ccccc2)c2ncn(C(C)C)c2n1 [Roscovitine, reference compound] | neuronal cell survival rates comparable to those of the control experiments |
